The test system of series [1] is MCL. As to the kind of experiment: MCL organ culture with guanethidine, mechanical testing. The settings on record: organ culture 10 days with guanethidine in media.
Protocol: Bilateral MCLs (n=6) including intact femoral and tibial segments were aseptically harvested from untreated rats.
During and after harvest, tissues were rinsed in sterile phosphate buffered saline (PBS) containing penicillin (100 U/mL), streptomycin (100 μg/mL), and fungizone (0.25 μg/mL). Bone blocks were trimmed in order to minimize the amount of bone marrow, which may alter the culture environment. Tissues were then cultured in Dulbecco's Modified Eagle's Medium (DMEM) supplemented with 10% fetal bovine serum, nonessential amino acids (0.1 mM), L-gutamine (4 mM), penicillin (100 U/mL), streptomycin (100 μg/mL), and fungizone (0.25 μg/mL). […] The cultures were maintained in an incubator at 37° C. and 5% CO2. Media were changed every 48 hours at which time tissues were rinsed with sterile PBS to reduce drug carryover into the fresh media containing the treatment drug or equivalent volume of carrier. Organ culture was maintained for 10 days after which time the MCLs were tested mechanically in the same manner as the in vivo treatment group (described below).
For series [2], the system named is sympathetic nervous system. The conditions noted are these: rat, in vivo.
Protocol: For all groups, anesthesia (isofluorane 0.5-3%) was initiated in an induction chamber and maintained with a facemask. […] Both groups were survived for 10 days following implantation of the pump at which time the animals were euthanized with intraperitoneal injection of pentobarbitone. Throughout the study only one ligament per animal was used for a particular experimental test protocol (described below).
Statistical analysis was performed using an unpaired t-test (alpha=0.05) to compare differences between the control and treatment groups.
Series [3] concerns intact MCL. The conditions noted are these: guanethidine 40 mg/kg/day, 10 days. On the procedure: Ligament thickness and width was measured optically, and MCL area was estimated with elliptical geometry. […] For strain measurements, optical markers were placed onto the ligament tissue near the insertion sites. A small preload of 0.1N was applied to the ligaments in order to obtain a uniform starting point. The ligaments were then preconditioned to 1% strain for 10 cycles.
The mechanical properties that were examined in this study were maximum force, ultimate stress, strain at failure, elastic modulus, and area.

Structures are written as SMILES.

`N=C(N)NCCN1CCCCCCC1` [guanethidine]: the ultimate stress in series [1] was 70.29±19.15 MPa. The “abnormalities in movement, body weight, or behavior” value in series [2] is listed as “No abnormalities”. For the same compound, in series [3], the “mean ultimate tensile force” value was “not significantly decreased” and the strain at failure is reported as 8.1±0.4%. Also, the wet weight in series [3] (tissue hydration) worked out at 6.8 ± 0.7 g.
